The text below walks through data of patent US11207312B2, “Metallo-beta-lactamase inhibitors and methods of use thereof” (priority 2017, dated 2021).

As usually defined, the IC50 is the point on the concentration scale where inhibition reaches its midpoint.

For data set [1], the target named is NDM-1 (Klebsiella pneumoniae, UniProt C7C422). Briefly: biochemical. Conditions: CCF2-FA fluorescence assay, 2 hours at 25° C. Format: biochemical. A digest of the protocol:
(§1)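 IC50s come from 4-parameter fits of inhibition versus inhibitor concentration, tested from 20 μM down to 0.00063 μM. Enzyme, CCF2-FA (1.25 μM) and inhibitor react 2 h at 25° C, pH 7, with 10 μM ZnSO4 and 0.005% Tween-20.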

Data set [2] concerns the target IMP-1 (Serratia marcescens, UniProt P52699). As to the kind of experiment: biochemical. Conditions: CCF2-FA fluorescence assay, 2 hours at 25° C.; read-out: IMP1 IC50. Put shortly:
as §1

Data set [3] deals with VIM-1 (Pseudomonas aeruginosa (strain ATCC 15692 / DSM 22644 / CIP 104116 / JCM 14847 / LMG 12228 / 1C / PRS 101 / PAO1), UniProt A0A0F7KYQ8). As to the kind of experiment: biochemical. The settings on record: CCF2-FA fluorescence assay, 2 hours at 25° C.; read-out: VIM1 IC50. Put shortly: as §1
Data set [4] has as its target VIM-2 (Escherichia coli, UniProt Q5U7L7). As to the kind of experiment: biochemical. Conditions: CCF2-FA fluorescence assay; read-out: VIM2 IC50.
The subject of data set [5] is Escherichia coli expressing NDM-1 (CLB30016). Format: cell-based. Conditions: with imipenem 1 μg/ml; 95% inhibition of bacterial growth. Put shortly: (§2)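 Clinical MBL-producing strains grown overnight at 35° C, diluted 1:100 into CAMHB, then exposed to test compound with imipenem at 1 μg/ml for 22–24 h at 35° C. Absorbance read-out; MITC95 is the lowest compound concentration giving 95% growth inhibition with imipenem.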

The subject of data set [6] is Klebsiella pneumoniae expressing VIM-1 (IHMA599644). Format: cell-based. Conditions: with imipenem 1 μg/ml; 95% inhibition of bacterial growth. Put shortly: as §2
The test system of data set [7] is Serratia marcescens expressing IMP-1 (CL5741). Format: cell-based. Conditions: with imipenem 1 μg/ml; 95% inhibition of bacterial growth. Put shortly:
as §2

The test system of data set [8] is P. aeruginosa MB9798 (efflux+, IMP-1 plasmid). Conditions: for MB9798 MITC95 P. aeruginosa uM Efflux WT: efflux + (MB9798) strain, imipenem at 2 μg/mL, in the presence of a class A, C, D serine β-lactamase inhibitor closely related to relebactam; for Efflux ratio: fold difference between efflux+ (MB9798) and efflux− (MB9799) strains. A digest of the protocol: (§3)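 Isogenic P. aeruginosa PAO1 strains (efflux+ and multiple-efflux-pump-disrupted) carrying plasmid IMP-1, with inducible AmpC, tested by broth microdilution. Imipenem and/or ceftazidime fixed, usually at CLSI breakpoint, plus fixed class A/C β-lactamase inhibitor; titrated MBL inhibitor concentration restoring susceptibility recorded and compared between strains as efflux fold difference.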

In data set [9] the test system is P. aeruginosa MB9799 (efflux-, IMP-1 plasmid). Format: cell-based, Pseudomonas aeruginosa. Conditions: efflux − (MB9799) strain; imipenem at 2 μg/mL; in the presence of a class A, C, D serine β-lactamase inhibitor closely related to relebactam. Put shortly: as §3

NDM-1, sequence (C7C422 whole entry, looked up, species assumed): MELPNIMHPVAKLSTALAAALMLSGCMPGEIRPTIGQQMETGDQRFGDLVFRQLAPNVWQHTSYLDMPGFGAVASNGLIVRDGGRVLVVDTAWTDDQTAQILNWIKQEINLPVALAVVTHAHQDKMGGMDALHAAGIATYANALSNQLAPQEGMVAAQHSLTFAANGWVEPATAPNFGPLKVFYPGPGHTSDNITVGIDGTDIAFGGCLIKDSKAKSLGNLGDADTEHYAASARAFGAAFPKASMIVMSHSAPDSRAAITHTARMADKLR
IMP-1, sequence (P52699 whole entry, looked up, species assumed): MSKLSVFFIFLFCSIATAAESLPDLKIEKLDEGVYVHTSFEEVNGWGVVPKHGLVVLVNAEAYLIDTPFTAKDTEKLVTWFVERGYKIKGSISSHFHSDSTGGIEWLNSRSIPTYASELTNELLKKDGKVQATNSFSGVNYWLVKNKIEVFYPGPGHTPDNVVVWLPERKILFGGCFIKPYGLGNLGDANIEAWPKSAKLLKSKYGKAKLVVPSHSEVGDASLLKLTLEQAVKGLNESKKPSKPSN

On to `NCC1=CCN(c2ccc(S(=O)(=O)NC[C@H](O)CN)c(S(N)(=O)=O)c2-c2nn[nH]n2)C1.O=C(O)C(F)(F)F.O=C(O)C(F)(F)F` [Example 170], for which the 50% inhibitory concentration (IC50) in data set [1] turned out to be 11.4 nM; in [2], 15.3 nM; in [3], 5.64 nM; in [4], 42.9 nM. Also, in data set [5], the “CLB30016 E. coli MITC95 NDM” value stood at 1.56 µM. For the same molecule, the “IHMA599644 K. pneumoniae MITC95 VIM” value in data set [6] was 1.56 µM. The “CL5741 S. marcescens MITC95 IMP” value in [7] was 1.56 µM. Further, the “MB9798 MITC95 P. aeruginosa uM Efflux WT” value in [8] came to 6.25 µM. For the same molecule, the Efflux ratio in [8] is 4.00. Further, in [9], the “MB9799 MITC95 P. aeruginosa uM Efflux Mutant” value came out at 1.56 µM.
For `NC[C@@H](O)CNS(=O)(=O)c1ccc(N2CCC3(CC2)CNC(N)=N3)c(-c2nn[nH]n2)c1S(N)(=O)=O` [Example 171, (R)—N1-(3-amino-2-hydroxypropyl)-4-(2-amino-1,3,8-triazaspiro [4.5]dec-1-en-8-yl)-3-(2H-tetrazol-5-yl)benzene-1,2-disulfonamide], the half-inhibitory concentration (IC50) in data set [1] came to 3.38 nM; in data set [2] it was 7.39 nM; in data set [3], 0.92 nM; in data set [4] it was 27.8 nM. Besides, in [5], the “CLB30016 E. coli MITC95 NDM” value was determined as 0.39 µM. Moreover, the “IHMA599644 K. pneumoniae MITC95 VIM” value in data set [6] amounted to 0.78 µM. Further, the “CL5741 S. marcescens MITC95 IMP” value in data set [7] was 0.78 µM. Also, the “MB9798 MITC95 P. aeruginosa uM Efflux WT” value in data set [8] came to 0.78 µM. For the same molecule, the Efflux ratio in [8] worked out at 2.00. Besides, the “MB9799 MITC95 P. aeruginosa uM Efflux Mutant” value in data set [9] turned out to be 0.39 µM.
With `NCC1C2CCC1CN(c1ccc(S(=O)(=O)NC[C@H](O)CN)c(S(N)(=O)=O)c1-c1nn[nH]n1)C2` (stereo partly drawn) [Example 172, N1-((R)-3-amino-2-hydroxypropyl)-4-((1R,5S,8R)-8-(aminomethyl)-3-azabicyclo[3.2.1]octan-3-yl)-3-(2H-tetrazol-5-yl)benzene-1,2-disulfonamide], the IC50 was 2.15 nM in data set [1], 3.49 nM in data set [2], 0.66 nM in data set [3] and 3.78 nM in data set [4]. The “CLB30016 E. coli MITC95 NDM” value in data set [5] was determined as 1.17 µM. Moreover, the “IHMA599644 K. pneumoniae MITC95 VIM” value in [6] turned out to be 2.34 µM. In addition, the “CL5741 S. marcescens MITC95 IMP” value in data set [7] worked out at 2.34 µM. In addition, the “MB9798 MITC95 P. aeruginosa uM Efflux WT” value in [8] came out at 1.17 µM. In [8], the Efflux ratio is 1.00. Also, the “MB9799 MITC95 P. aeruginosa uM Efflux Mutant” value in [9] worked out at 1.17 µM.
With `CC1(C)CN(c2ccc(S(=O)(=O)NC[C@H](O)CN)c(S(N)(=O)=O)c2-c2nn[nH]n2)CCN1CCO` [Example 173, (R)-N1-(3-amino-2-hydroxypropyl)-4-(4-(2-hydroxyethyl)-3,3-dimethylpiperazin-1-yl)-3-(2H-tetrazol-5-yl)benzene-1,2-disulfonamide], the 50% inhibitory concentration (IC50) in [1] was found to be 19.8 nM; in [2], 10.5 nM; in data set [3], 13.7 nM; in data set [4], 114 nM. In addition, in [5], the “CLB30016 E. coli MITC95 NDM” value came to 1.56 µM. For the same molecule, the “IHMA599644 K. pneumoniae MITC95 VIM” value in data set [6] came to 6.25 µM. In addition, in data set [7], the “CL5741 S. marcescens MITC95 IMP” value stood at 3.13 µM. The “MB9798 MITC95 P. aeruginosa uM Efflux WT” value in [8] came out at 6.25 µM. In addition, the Efflux ratio in data set [8] was determined as 4.00. Also, the “MB9799 MITC95 P. aeruginosa uM Efflux Mutant” value in [9] was 1.56 µM.
For `NC[C@@H](O)CNS(=O)(=O)c1ccc(N2CCC(n3ccnc3)CC2)c(-c2nnn[nH]2)c1S(N)(=O)=O` [Example 174, (R)-4-(4-(1H-imidazol-1-yl)piperidin-1-yl)-N1-(3-amino-2-hydroxypropyl)-3-(2H-tetrazol-5-yl)benzene-1,2-disulfonamide], the IC50 came to 0.69 nM in [1], 0.36 nM in [2], 0.07 nM in data set [3] and 0.22 nM in data set [4]. For the same molecule, in data set [5], the “CLB30016 E. coli MITC95 NDM” value was 0.78 µM. Moreover, the “IHMA599644 K. pneumoniae MITC95 VIM” value in data set [6] is 3.13 µM. The “CL5741 S. marcescens MITC95 IMP” value in data set [7] came out at 0.78 µM. In data set [8], the “MB9798 MITC95 P. aeruginosa uM Efflux WT” value was found to be 3.13 µM. Besides, in [8], the Efflux ratio came out at 2.00. In addition, in [9], the “MB9799 MITC95 P. aeruginosa uM Efflux Mutant” value turned out to be 1.56 µM.
In the case of `NCC1=CCN(c2ccc(S(=O)(=O)NC[C@H](O)CN)c(S(N)(=O)=O)c2-c2nn[nH]n2)CC1` [Example 175, (R)-N1-(3-amino-2-hydroxypropyl)-4-(4-(aminomethyl)-5,6-dihydropyridin-1(2H)-yl)-3-(2H-tetrazol-5-yl)benzene-1,2-disulfonamide], the IC50 worked out at 2.55 nM in [1], 3.66 nM in [2], 0.24 nM in data set [3] and 4.18 nM in data set [4]. Moreover, in data set [5], the “CLB30016 E. coli MITC95 NDM” value was determined as 0.39 µM. Besides, the “IHMA599644 K. pneumoniae MITC95 VIM” value in [6] is 1.56 µM. For the same molecule, in data set [7], the “CL5741 S. marcescens MITC95 IMP” value is 0.78 µM. For the same molecule, the “MB9798 MITC95 P. aeruginosa uM Efflux WT” value in data set [8] was 1.56 µM. Moreover, in data set [8], the Efflux ratio came out at 2.00. In addition, in data set [9], the “MB9799 MITC95 P. aeruginosa uM Efflux Mutant” value was found to be 0.78 µM.
Consider `CC1CN(c2ccc(S(=O)(=O)NC[C@H](O)CN)c(S(N)(=O)=O)c2-c2nn[nH]n2)CCN1CCO.O=C(O)C(F)(F)F.O=C(O)C(F)(F)F` (stereo partly drawn) [Example 176, N1-((R)-3-amino-2-hydroxypropyl)-4-(4-(2-hydroxyethyl)-3-methylpiperazin-1-yl)-3-(2H-tetrazol-5-yl)benzene-1,2-disulfonamide bis(2,2,2-trifluoroacetate) salt], for which the concentration for half-maximal inhibition (IC50) in data set [1] is 2.51 nM; in [2], 5.1 nM; in [3], 2.76 nM; in [4] it was 11.7 nM. The “CLB30016 E. coli MITC95 NDM” value in data set [5] is 0.39 µM. Also, the “IHMA599644 K. pneumoniae MITC95 VIM” value in data set [6] turned out to be 1.56 µM. Besides, in data set [7], the “CL5741 S. marcescens MITC95 IMP” value is 0.39 µM. Further, in data set [8], the “MB9798 MITC95 P. aeruginosa uM Efflux WT” value came to 3.13 µM. Besides, the Efflux ratio in [8] came to 2.00. In addition, the “MB9799 MITC95 P. aeruginosa uM Efflux Mutant” value in data set [9] worked out at 1.56 µM.
For `NC[C@@H](O)CNS(=O)(=O)c1ccc(N2CCC(C3COC(=O)N3)CC2)c(-c2nn[nH]n2)c1S(N)(=O)=O` (stereo partly drawn) [Example 177, N1-((R)-3-amino-2-hydroxypropyl)-4-(4-(2-oxooxazolidin-4-yl)piperidin-1-yl)-3-(2H-tetrazol-5-yl)benzene-1,2-disulfonamide], the IC50 was 0.57 nM in [1], 0.19 nM in [2], 0.15 nM in data set [3] and 0.66 nM in data set [4]. The “CLB30016 E. coli MITC95 NDM” value in data set [5] was 6.25 µM. In addition, in data set [6], the “IHMA599644 K. pneumoniae MITC95 VIM” value is 6.25 µM. Besides, in data set [7], the “CL5741 S. marcescens MITC95 IMP” value was 3.13 µM. The “MB9798 MITC95 P. aeruginosa uM Efflux WT” value in data set [8] worked out at 1.56 µM. Moreover, the Efflux ratio in data set [8] turned out to be 1.00. Besides, the “MB9799 MITC95 P. aeruginosa uM Efflux Mutant” value in [9] was 1.56 µM.
Turning to `NC[C@@H](O)CNS(=O)(=O)c1ccc(N[C@H]2CCC[C@H]2N)c(-c2nn[nH]n2)c1S(N)(=O)=O` [Example 178, N1-((R)-3-amino-2-hydroxypropyl)-4-(((1S,2R)-2-aminocyclopentyl)amino)-3-(2H-tetrazol-5-yl)benzene-1,2-disulfonamide], the IC50 in data set [1] turned out to be 29 nM; in data set [2], 101 nM; in [3], 80.1 nM; in [4] it was 132 nM. Further, the “CLB30016 E. coli MITC95 NDM” value in [5] turned out to be 1.56 µM. Further, in data set [6], the “IHMA599644 K. pneumoniae MITC95 VIM” value came out at 6.25 µM. Besides, in data set [7], the “CL5741 S. marcescens MITC95 IMP” value is 6.25 µM. In data set [8], the “MB9798 MITC95 P. aeruginosa uM Efflux WT” value worked out at 25.00 µM. The Efflux ratio in [8] is listed as 4.00. In addition, in data set [9], the “MB9799 MITC95 P. aeruginosa uM Efflux Mutant” value is 6.25 µM.
